Laboratory results reported in patent US20250195551A1 (L4 BIO LLC, priority 2023, published 2025).
Entries after “also recorded” stand apart in the source; their conditions may differ.

Tested on: pentylenetetrazol (PTZ)-induced ictal brain activity
Test: Modulation of pentylenetetrazol (PTZ)-induced seizures, BOLD fMRI in rats
Assay type: in vivo
Settings: 3 mg/kg, positive control; anesthetized male Wistar rats
Method: Functional MRI (fMRI) was performed using a high-field preclinical MRI system in anesthetized male Wistar rats in order to determine the modulation of pentylenetetrazol (PTZ)-induced ictal brain activity by chronic treatment with test compound (TC). Animals treated with vehicle and 3 mg/kg Alprazolam served as controls. A schematic of the study design can be seen in FIG. 6. […] Various physiological parameters were also measured throughout the experiment including body weight, CO2 levels, blood pH, and heart rate.

## Cc1nnc2n1-c1ccc(Cl)cc1C(c1ccccc1)=NC2 [Alprazolam]
  PTZ-induced ictal brain activity (BOLD fMRI area under the curve) vs vehicle: effectively cancelled PTZ-induced brain activity; also recorded: Vehicle vs. Alprazolam in all
